Assay: xn = mol fraction of the nth substance listed
Details: 101 kPa, Liquid; for speed of sound: Single path-length method

COC(C)(C)C [2-methoxy-2-methylpropane] + CC(C)(C)O
Details | mass density [kg/m3] | speed of sound [m/s]
301.65 K, x1 = 0.049 | 775.452 | 1105.4
301.65 K, x1 = 0.1 | 772.914 | 1100.7
301.65 K, x1 = 0.215 | 767.025 | 1089.3
301.65 K, x1 = 0.314 | 761.986 | 1079.7
301.65 K, x1 = 0.4 | 757.94 | 1072
301.65 K, x1 = 0.498 | 753.459 | 1063.6
301.65 K, x1 = 0.597 | 749.177 | 1055.5
301.65 K, x1 = 0.707 | 744.495 | 1047.6
301.65 K, x1 = 0.799 | 740.646 | 1040.8
301.65 K, x1 = 0.9 | 736.522 | 1033.1
301.65 K, x1 = 0.951 | 734.553 | 1028.8
301.65 K, x1 = 1 | 732.643 | 1024.3
303.15 K, x1 = 0.049 | 772.916 | 1094.7
303.15 K, x1 = 0.1 | 770.395 | 1090.2
303.15 K, x1 = 0.215 | 764.529 | 1079.1
303.15 K, x1 = 0.314 | 759.479 | 1069.7
303.15 K, x1 = 0.4 | 755.424 | 1061.9
303.15 K, x1 = 0.498 | 750.928 | 1053.1
303.15 K, x1 = 0.597 | 746.615 | 1045
303.15 K, x1 = 0.707 | 741.905 | 1036.7
303.15 K, x1 = 0.799 | 738.033 | 1029.9
303.15 K, x1 = 0.9 | 733.889 | 1021.9
303.15 K, x1 = 0.951 | 731.913 | 1017.6
303.15 K, x1 = 1 | 729.99 | 1012.8
305.65 K, x1 = 0.049 | 770.344 | 1084
305.65 K, x1 = 0.1 | 767.841 | 1079.7
305.65 K, x1 = 0.215 | 762.002 | 1068.7
305.65 K, x1 = 0.314 | 756.946 | 1059.4
305.65 K, x1 = 0.4 | 752.889 | 1051.7
305.65 K, x1 = 0.498 | 748.373 | 1042.6
305.65 K, x1 = 0.597 | 744.023 | 1034.3
305.65 K, x1 = 0.707 | 739.304 | 1025.9
305.65 K, x1 = 0.799 | 735.393 | 1018.7
305.65 K, x1 = 0.9 | 731.231 | 1010.6
305.65 K, x1 = 0.951 | 729.253 | 1006.3
305.65 K, x1 = 1 | 727.325 | 1001.4
308.15 K, x1 = 0.049 | 767.747 | 1073.2
308.15 K, x1 = 0.1 | 765.265 | 1069.1
308.15 K, x1 = 0.215 | 759.448 | 1058.2
308.15 K, x1 = 0.314 | 754.398 | 1049.1
308.15 K, x1 = 0.4 | 750.325 | 1041.2
308.15 K, x1 = 0.498 | 745.794 | 1032
308.15 K, x1 = 0.597 | 741.414 | 1023.5
308.15 K, x1 = 0.707 | 736.686 | 1015.2
308.15 K, x1 = 0.799 | 732.737 | 1007.6
308.15 K, x1 = 0.9 | 728.559 | 999.39
308.15 K, x1 = 0.951 | 726.577 | 994.94
308.15 K, x1 = 1 | 724.645 | 989.9
310.65 K, x1 = 0.049 | 765.13 | 1062.6
310.65 K, x1 = 0.1 | 762.685 | 1058.9
310.65 K, x1 = 0.215 | 756.88 | 1047.9
310.65 K, x1 = 0.314 | 751.817 | 1038.6
310.65 K, x1 = 0.4 | 747.731 | 1030.6
310.65 K, x1 = 0.498 | 743.186 | 1021.4
310.65 K, x1 = 0.597 | 738.784 | 1012.8
310.65 K, x1 = 0.707 | 734.036 | 1004.3
310.65 K, x1 = 0.799 | 730.062 | 996.52
310.65 K, x1 = 0.9 | 725.873 | 988.12
310.65 K, x1 = 0.951 | 723.884 | 983.57
310.65 K, x1 = 1 | 721.953 | 978.47
313.15 K, x1 = 0.049 | 762.492 | 1052
313.15 K, x1 = 0.1 | 760.064 | 1048.4
313.15 K, x1 = 0.215 | 754.27 | 1037.4
313.15 K, x1 = 0.314 | 749.212 | 1028.2
313.15 K, x1 = 0.4 | 745.126 | 1020.2
313.15 K, x1 = 0.498 | 740.567 | 1010.9
313.15 K, x1 = 0.597 | 736.13 | 1002
313.15 K, x1 = 0.707 | 731.36 | 993.34
313.15 K, x1 = 0.799 | 727.372 | 985.44
313.15 K, x1 = 0.9 | 723.168 | 976.81
313.15 K, x1 = 0.951 | 721.205 | 972.48
313.15 K, x1 = 1 | 719.245 | 967.03
315.65 K, x1 = 0.049 | 759.831 | 1041.5
315.65 K, x1 = 0.1 | 757.407 | 1037.8
315.65 K, x1 = 0.215 | 751.633 | 1026.8
315.65 K, x1 = 0.314 | 746.577 | 1017.7
315.65 K, x1 = 0.4 | 742.483 | 1009.7
315.65 K, x1 = 0.498 | 737.91 | 1000.2
315.65 K, x1 = 0.597 | 733.459 | 991.47
315.65 K, x1 = 0.707 | 728.662 | 982.37
315.65 K, x1 = 0.799 | 724.66 | 974.33
315.65 K, x1 = 0.9 | 720.449 | 965.56
315.65 K, x1 = 0.951 | 718.495 | 961.27
315.65 K, x1 = 1 | 716.525 | 955.73
318.15 K, x1 = 0.049 | 757.138 | 1031
318.15 K, x1 = 0.1 | 754.729 | 1027.3
318.15 K, x1 = 0.215 | 748.972 | 1016.3
318.15 K, x1 = 0.314 | 743.917 | 1007.1
318.15 K, x1 = 0.4 | 739.814 | 999.06
318.15 K, x1 = 0.498 | 735.227 | 989.54
318.15 K, x1 = 0.597 | 730.762 | 980.67
318.15 K, x1 = 0.707 | 725.943 | 971.38
318.15 K, x1 = 0.799 | 721.933 | 963.24
318.15 K, x1 = 0.9 | 717.738 | 954.55
318.15 K, x1 = 0.951 | 715.752 | 949.91
318.15 K, x1 = 1 | 713.786 | 944.34
320.65 K, x1 = 0.049 | 754.421 | 1020.5
320.65 K, x1 = 0.1 | 752.024 | 1016.8
320.65 K, x1 = 0.215 | 746.283 | 1005.9
320.65 K, x1 = 0.314 | 741.23 | 996.62
320.65 K, x1 = 0.4 | 737.119 | 988.47
320.65 K, x1 = 0.498 | 732.517 | 978.82
320.65 K, x1 = 0.597 | 728.042 | 969.8
320.65 K, x1 = 0.707 | 723.201 | 960.4
320.65 K, x1 = 0.799 | 719.199 | 952.31
320.65 K, x1 = 0.9 | 714.978 | 943.3
320.65 K, x1 = 0.951 | 712.991 | 938.58
320.65 K, x1 = 1 | 711.028 | 933.01
323.15 K, x1 = 0.049 | 751.68 | 1010
323.15 K, x1 = 0.1 | 749.295 | 1006.3
323.15 K, x1 = 0.215 | 743.567 | 995.37
323.15 K, x1 = 0.314 | 738.52 | 986.19
323.15 K, x1 = 0.4 | 734.4 | 977.86
323.15 K, x1 = 0.498 | 729.786 | 968.08
323.15 K, x1 = 0.597 | 725.316 | 958.97
323.15 K, x1 = 0.707 | 720.436 | 949.42
323.15 K, x1 = 0.799 | 716.426 | 941.22
323.15 K, x1 = 0.9 | 712.195 | 931.99
323.15 K, x1 = 0.951 | 710.215 | 927.25
323.15 K, x1 = 1 | 708.28 | 921.93

Reference: the NIST ThermoML archive (doi:10.1007/s10765-007-0223-x)
